# ChEMBL document CHEMBL3286212, “Synthesis of isoquinolinone-based tricycles as novel poly(ADP-ribose) polymerase-1 (PARP-1) inhibitors” (Bioorg Med Chem Lett, 2014)
# Experiments:
# [1] = biological target: Poly [ADP-ribose] polymerase 1 (Homo sapiens, UniProt P09874); experiment: Inhibition of human recombinant PARP-1 after 1 hr by ELISA
# [2] = Cytotoxicity against BRCA2-deficient Chinese hamster VC8 cells by sulforhodamine B assay; assay type: functional; conditions: Cricetulus griseus, V-C8
# [3] = Cytotoxicity against Chinese hamster V79 cells by sulforhodamine B assay; assay type: cell-based, Cricetulus griseus
# [4] = Cytotoxicity against BRCA1-deficient human MDA-MB-436 cells by sulforhodamine B assay; assay type: functional
# Poly [ADP-ribose] polymerase 1, sequence (P09874 whole entry): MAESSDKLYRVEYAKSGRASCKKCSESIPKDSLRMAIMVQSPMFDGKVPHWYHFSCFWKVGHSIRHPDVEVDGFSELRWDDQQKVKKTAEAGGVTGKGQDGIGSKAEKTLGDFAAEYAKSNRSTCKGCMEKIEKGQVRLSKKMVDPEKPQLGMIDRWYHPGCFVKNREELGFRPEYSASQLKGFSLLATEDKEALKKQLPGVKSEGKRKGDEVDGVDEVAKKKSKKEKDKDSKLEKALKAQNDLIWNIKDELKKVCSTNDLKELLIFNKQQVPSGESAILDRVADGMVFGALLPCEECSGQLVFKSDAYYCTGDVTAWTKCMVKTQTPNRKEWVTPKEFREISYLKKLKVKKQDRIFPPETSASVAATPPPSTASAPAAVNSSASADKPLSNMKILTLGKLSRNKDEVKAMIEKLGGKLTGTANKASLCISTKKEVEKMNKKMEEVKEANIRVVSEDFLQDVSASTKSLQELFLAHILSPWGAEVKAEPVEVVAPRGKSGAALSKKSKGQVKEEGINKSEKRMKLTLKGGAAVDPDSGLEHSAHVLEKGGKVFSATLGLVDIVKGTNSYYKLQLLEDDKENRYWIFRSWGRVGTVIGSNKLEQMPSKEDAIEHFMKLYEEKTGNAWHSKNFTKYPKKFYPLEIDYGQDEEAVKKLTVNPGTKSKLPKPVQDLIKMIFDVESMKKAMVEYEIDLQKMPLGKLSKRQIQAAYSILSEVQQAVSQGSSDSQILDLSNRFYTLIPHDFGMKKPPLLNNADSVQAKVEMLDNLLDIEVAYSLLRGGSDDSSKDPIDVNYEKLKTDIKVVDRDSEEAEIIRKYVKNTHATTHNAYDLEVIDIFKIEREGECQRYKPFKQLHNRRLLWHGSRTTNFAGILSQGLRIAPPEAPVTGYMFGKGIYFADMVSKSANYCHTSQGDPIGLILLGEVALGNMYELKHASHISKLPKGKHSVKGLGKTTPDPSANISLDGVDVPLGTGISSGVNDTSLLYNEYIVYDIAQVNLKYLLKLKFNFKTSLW
SMILES,IC50 [1] [nM],CC50 [2] [µM],CC50 [3] [µM],CC50 [4] [nM]
Cc1c(C(=O)NCCN2CCN(C)CC2)sc2c1[nH]c(=O)c1ccccc12,284,–,–,–
Cn1c(C(=O)N2CCCNCC2)c(Br)c2[nH]c(=O)c3ccccc3c21,100,–,–,–
Cc1c(C(=O)N2CCC(N(C)C)CC2)sc2c1[nH]c(=O)c1ccccc12,29,> 10,> 10,> 10000
Cc1c(C(=O)NCCN2CCOCC2)sc2c1[nH]c(=O)c1ccccc12,83,–,–,–
CN1CCCN(C(=O)c2cc3[nH]c(=O)c4ccccc4c3n2C)CC1,200,–,–,–
Cc1c(C(=O)N2CC=C(c3ccc(F)cc3)CC2)sc2c1[nH]c(=O)c1ccccc12,133,–,–,–
Cn1c(C(=O)N2CCNCC2)cc2[nH]c(=O)c3ccccc3c21,44,–,–,–
CN(C)CCNC(=O)c1cc2[nH]c(=O)c3ccccc3c2n1C,1100,–,–,–
CN1CCCN(C(=O)c2cc3c(n2C)-c2ccccc2C(=O)NC3)CC1,10000,–,–,–
Cn1c(C(=O)N2CCCNCC2)cc2[nH]c(=O)c3ccccc3c21,100,> 10,> 10,1190
CN1CCN(C(=O)c2cc3[nH]c(=O)c4ccccc4c3n2C)CC1,119,–,–,–
CN(C)C1CCN(C(=O)c2cc3c(n2C)-c2ccccc2C(=O)NC3)CC1,6430,–,–,–
Cn1c(C(=O)NCCCN2CCOCC2)cc2[nH]c(=O)c3ccccc3c21,100,–,–,–
COc1cccc(CN2CCN(C(=O)c3cc4[nH]c(=O)c5ccccc5c4n3C)CC2)c1,400,–,–,–
CC(C)N1CCN(C(=O)c2cc3[nH]c(=O)c4ccccc4c3n2C)CC1,830,–,–,–
Cc1c(C(=O)N2CCN(C(C)C)CC2)sc2c1[nH]c(=O)c1ccccc12,86,> 10,> 10,> 10000
Cn1c(C(=O)N2CC=C(c3ccc(F)cc3)CC2)cc2c1-c1ccccc1C(=O)NC2,1670,–,–,–
Cn1c(C(=O)N2CCN(Cc3ccccc3)CC2)cc2[nH]c(=O)c3ccccc3c21,860,–,–,–
Cn1c(C(=O)NCCN2CCCC2)cc2c1-c1ccccc1C(=O)NC2,8170,–,–,–
CCN1CCN(C(=O)c2sc3c([nH]c(=O)c4ccccc43)c2C)CC1,79,> 10,> 10,3480
CC(C)S(=O)(=O)N1CCN(C(=O)c2cc3[nH]c(=O)c4ccccc4c3n2C)CC1,600,–,–,–
CN(C)CCCNC(=O)c1cc2[nH]c(=O)c3ccccc3c2n1C,300,–,–,–
CN1CCN(C(=O)c2cc3c(n2C)-c2ccccc2C(=O)NC3)CC1,> 10000,–,–,–
O=C(c1cc(Cc2n[nH]c(=O)c3ccccc23)ccc1F)N1CCN(C(=O)C2CC2)CC1 [OLAPARIB],–,0.468,8.98,16.9
Cc1c(C(=O)N2CCN(C)CC2)sc2c1[nH]c(=O)c1ccccc12,231,–,–,–
Cc1c(C(=O)NCCN2CCCC2)sc2c1[nH]c(=O)c1ccccc12,248,–,–,–
Cn1c(C(=O)N2CCCNCC2)c(Cl)c2[nH]c(=O)c3ccccc3c21,100,–,–,–
Cn1c(C(=O)N2CCN(Cc3ccc([N+](=O)[O-])cc3)CC2)cc2[nH]c(=O)c3ccccc3c21,> 10000,–,–,–
